Molecules are shown by their SMILES.

This note sets out measurements from patent publication US6773708B1, “Use of xanthophylls, astaxanthin e.g., for treatment of autoimmune diseases, chronic viral and intracellular bacterial infections” (AstaReal AB, priority 1999, dated 2004).

This test relates to Lichen Ruber Planus. Briefly: Case study: patient with Lichen ruber planus. In kind it is in vivo, human. The settings on record: Patient 4; several years, orally and by injection to local inflammation areas. How it is done: During the last five years reports have been received from patients taking the commercial dietary supplement capsules of the algal meal of Haematococcus pluvialis, Astaxin®, containing 4 mg astaxanthin. The daily doses recommended as an antioxidant is one capsule per day.
Patient 4. […] The symptoms of the disease were inter alia open wounds which had not healed […] had been treated with anti-inflammatory agents, such as cortisone, for several years, orally and also by injection directly to the local inflammation areas. […] They started to take 4 capsules of Astaxin per day, and after some weeks visible alleviation of the symptoms started to show up. […] During this period, the patient […] phased out the cortisone treatment. The dose of Astaxin was lowered to 2 capsules per day when they were asymtomatic. However, the symptoms returned in connection with a common cold.

With `C[C@]12CCC(=O)C=C1CC[C@@H]1[C@@H]2C(=O)C[C@@]2(C)[C@H]1CC[C@]2(O)C(=O)CO` [cortisone], the “result of previous anti-inflammatory treatment” value is given as “has not led to any result”.
